According to ChEMBL document CHEMBL1143877, “Xylose as a carrier for boron containing compounds” (2008):

How the values were obtained:
T-24 [1] = assay: Inhibition of tumor growth in human T24 cells xenografted orally dosed SCIDnodCA mouse; assay type: functional; set-up: scale not given: the % may be the effect or the level left
T-24 [2] = assay: Inhibition of tumor growth in human T24 cells xenografted sc dosed SCIDnodCA mouse; assay type: functional; set-up: scale not given: the % may be the effect or the level left

Oc1ccc2cc(O[C@@H]3OC[C@@H](O)[C@H](O)[C@H]3O)ccc2c1 was tested, and the Activity (T-24 [1]) was 70% and the Activity (T-24 [2]) was 97%.
